What is called AC50 is the concentration at which the activity in the assay is half-maximal.

Results filed as inconclusive are left out. Active and inactive are the calls of the source.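 How the source made its calls: active means luminescence falls with dose and the fitted half-maximal concentration is within ten times the top dose in every run; inconclusive means runs disagree, or a flat moderate drop, or a poor fit; inactive means every run inactive, including rises or flat response.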

In PubChem BioAssay AID493101 (Broad Institute, 2011) one finds AC50 and activity change, negative = inhibition data, which are given here for 13 compounds.

One assay relates to Vibrio harveyi JMH597 AI-2 quorum sensing luminescence, 9 h. Briefly: LuxS/LuxPQ-dependent luminescence inhibition, V. harveyi – dry powder, set 4, dose response (AID 493101).
Settings: not given
In the case of `O=S(=O)(Nc1ccccn1)c1ccc(Oc2ccccc2)cc1`, the AC50 was 7.34 µM.
In the case of `C=Cn1c(C(=O)O)ccc1-c1ccc(CC)cc1`, the AC50 is 3.22 µM.
For the compound `O=C1C=C/C(=C/Br)O1`, the AC50 is 4.64 µM.
Regarding `O=S(=O)(Nc1cccnc1)c1ccc(Oc2ccccc2)cc1`, the AC50 was 0.766 µM.
As for `Cn1cnc(S(=O)(=O)Nc2ccc(OC(F)(F)F)cc2)c1`, the AC50 was 8.62 µM.
`CCc1ccc(-c2ccc(C(=O)O)n2C)cc1`: the AC50 is 5.52 µM.

System in a further assay: not listed separately
The description is as above. As to conditions: Vibrio harveyi JMH597 AI-2 quorum sensing luminescence, 9 h; at 16 µM (top of the series).
For the compound `Cc1ccccc1NS(=O)(=O)c1cn(C)cn1`, the activity change, negative = inhibition is -1.44% (inactive).
Turning to `CC(=O)Nc1ccccc1NS(=O)(=O)c1cn(C)cn1`, the activity change, negative = inhibition was 2.17% (inactive).
With `COc1ccccc1NS(=O)(=O)c1cn(C)cn1`, the activity change, negative = inhibition is -5.36% (inactive).
As to `Cn1cnc(S(=O)(=O)Nc2ccccc2Cl)c1`, the activity change, negative = inhibition was 3.87% (inactive).
For the compound `CN(C)C(=O)c1ccccc1NS(=O)(=O)c1cn(C)cn1`, the activity change, negative = inhibition is 0.404% (inactive).
As to `CCc1ccc(-c2ccc(C(=O)O)n2CC)cc1`, the activity change, negative = inhibition was 2.4% (inactive).
Take `Cn1cnc(S(=O)(=O)Nc2ccccc2F)c1`: the activity change, negative = inhibition was 2.07% (inactive).
